# Results: patent publication US20250026721A1, “COMPOUNDS AND METHODS FOR MODULATING RAS-PI3K” (Vividion Therapeutics, Inc., priority 2023, published 2025)
# Molecular target: T1, PIK3CA (Homo sapiens, UniProt P42336)
# T1 construct: endogenous in cells; host or cells: Jurkat cell lysate
# Assay: In vitro ELISA target engagement assay for PIK3CA in Jurkat cellular lysate (competition with PIK3CA Biotin Probe)
# Assay type: binding
# Settings: 1 hour at rt, then 500 nM PIK3CA Biotin Probe, read-out: Elisa Target Engagement Assay (TE50)
# Summary of the method: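 Competition format in Jurkat lysate: compound (serial dilutions, top 200 μM) for 1 h at rt, then 500 nM final biotinylated PIK3CA probe for 1 h at rt. Sandwich ELISA with capture antibody and Neutravidin-HRP luminescence read-out measured probe-labelled PIK3CA, giving TE50.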
# T1 sequence (P42336 whole entry): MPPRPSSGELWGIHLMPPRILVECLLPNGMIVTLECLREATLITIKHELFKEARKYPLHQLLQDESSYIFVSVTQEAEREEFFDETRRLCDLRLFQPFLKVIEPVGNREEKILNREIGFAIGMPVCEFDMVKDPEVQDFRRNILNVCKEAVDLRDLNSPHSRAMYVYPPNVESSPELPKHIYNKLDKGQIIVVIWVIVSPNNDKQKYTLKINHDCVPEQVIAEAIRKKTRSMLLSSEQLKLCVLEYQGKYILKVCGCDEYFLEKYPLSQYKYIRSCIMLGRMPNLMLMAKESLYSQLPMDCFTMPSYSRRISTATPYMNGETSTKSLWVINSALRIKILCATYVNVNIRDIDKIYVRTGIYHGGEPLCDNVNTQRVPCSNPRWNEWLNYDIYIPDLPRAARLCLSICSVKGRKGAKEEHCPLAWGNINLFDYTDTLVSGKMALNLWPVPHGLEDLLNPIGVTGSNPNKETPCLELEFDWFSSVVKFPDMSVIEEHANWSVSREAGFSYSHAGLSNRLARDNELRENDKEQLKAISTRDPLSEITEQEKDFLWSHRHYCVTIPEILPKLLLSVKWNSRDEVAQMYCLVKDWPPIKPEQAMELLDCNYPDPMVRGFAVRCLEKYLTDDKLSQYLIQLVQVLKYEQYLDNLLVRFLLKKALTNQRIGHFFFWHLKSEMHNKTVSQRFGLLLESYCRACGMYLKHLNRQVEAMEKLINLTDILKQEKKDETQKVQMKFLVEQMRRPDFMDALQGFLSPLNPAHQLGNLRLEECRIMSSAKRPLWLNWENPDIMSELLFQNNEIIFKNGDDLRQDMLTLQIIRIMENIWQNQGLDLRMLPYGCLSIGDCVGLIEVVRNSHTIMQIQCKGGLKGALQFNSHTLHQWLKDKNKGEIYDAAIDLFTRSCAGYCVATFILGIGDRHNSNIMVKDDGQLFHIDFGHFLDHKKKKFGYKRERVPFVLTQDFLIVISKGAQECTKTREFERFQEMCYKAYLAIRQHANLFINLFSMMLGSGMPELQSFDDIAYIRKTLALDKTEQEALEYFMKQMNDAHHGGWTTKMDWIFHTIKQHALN
# T1 sequence (P27986 whole entry partner): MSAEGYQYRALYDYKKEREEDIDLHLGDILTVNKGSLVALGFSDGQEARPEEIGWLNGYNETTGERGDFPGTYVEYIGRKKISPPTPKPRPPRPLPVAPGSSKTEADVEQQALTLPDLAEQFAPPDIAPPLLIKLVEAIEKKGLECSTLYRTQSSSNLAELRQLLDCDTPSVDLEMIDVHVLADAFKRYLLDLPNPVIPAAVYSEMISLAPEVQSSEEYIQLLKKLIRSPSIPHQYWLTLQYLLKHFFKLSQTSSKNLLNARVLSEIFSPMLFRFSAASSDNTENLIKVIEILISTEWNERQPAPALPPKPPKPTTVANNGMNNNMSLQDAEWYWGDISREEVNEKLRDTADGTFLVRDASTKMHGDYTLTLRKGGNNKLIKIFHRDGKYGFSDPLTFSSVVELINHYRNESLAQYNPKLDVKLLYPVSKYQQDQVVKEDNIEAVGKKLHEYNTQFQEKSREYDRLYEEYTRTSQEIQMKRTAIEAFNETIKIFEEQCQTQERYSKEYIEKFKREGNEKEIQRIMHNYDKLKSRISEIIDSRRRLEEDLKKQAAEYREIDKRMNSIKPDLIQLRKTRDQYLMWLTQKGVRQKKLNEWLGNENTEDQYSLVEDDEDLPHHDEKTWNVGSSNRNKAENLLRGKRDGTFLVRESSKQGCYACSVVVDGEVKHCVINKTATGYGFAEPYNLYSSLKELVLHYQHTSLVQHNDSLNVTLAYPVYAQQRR
row,IC50,SMILES
1,390 nM,"C[C@@H](NC(=O)C1(F)CCN(S(=O)(=O)c2ccc(C(F)(F)F)cc2-c2ccccc2Cl)CC1)C1=CS(=O)(=O)C1 [Compound 236, (R)-1-((2′-chloro-5-(trifluoromethyl)-[1,1′-biphenyl]-2-yl)sulfonyl)-N-(1-(1,1-dioxido-2H-thiet-3-yl)ethyl)-4-fluoropiperidine-4-carboxamide]"
2,410 nM,"COC[C@H](/C=C\S(C)(=O)=O)NC(=O)C1(F)CCN(S(=O)(=O)c2ccc(Br)cc2-c2ccccc2Cl)CC1 [Compound 247, (S,Z)-1-((5-bromo-2′-chloro-[1,1′-biphenyl]-2-yl)sulfonyl)-4-fluoro-N-(1-methoxy-4-(methylsulfonyl)but-3-en-2-yl)piperidine-4-carboxamide]"
3,883 nM,"C[C@H](/C=C\S(C)(=O)=O)NC(=O)C1(F)CCN(C(=O)C2CCN(C(=O)OC(C)(C)C)C=C2c2ccccc2Cl)CC1 (stereo partly drawn) [Compound 258, tert-butyl 5-(2-chlorophenyl)-4-(4-fluoro-4-(((R,Z)-4-(methylsulfonyl)but-3-en-2-yl)carbamoyl)piperidine-1-carbonyl)-3,4-dihydropyridine-1(2H)-carboxylate]"
4,830 nM,"CS(=O)(=O)C=C1CN(C(=O)C2(F)CCN(S(=O)(=O)c3ccc(Br)cc3-c3ccccc3Cl)CC2)C1 [Compound 273, (1-((5-bromo-2′-chloro-[1,1′-biphenyl]-2-yl)sulfonyl)-4-fluoropiperidin-4-yl)(3-((methylsulfonyl)methylene)azetidin-1-yl)methanone]"
5,150 nM,"C[C@H](C#CC(=O)N(C)C)NC(=O)C1(F)CCN(S(=O)(=O)c2ccc(Br)cc2-c2ccccc2Cl)CC1 [Compound 280, (R)-1-((5-bromo-2′-chloro-[1,1′-biphenyl]-2-yl)sulfonyl)-N-(5-(dimethylamino)-5-oxopent-3-yn-2-yl)-4-fluoropiperidine-4-carboxamide]"
6,160 nM,"C[C@@H](C#CC(=O)N(C)C)NC(=O)C1(F)CCN(S(=O)(=O)c2ccc(Br)cc2-c2ccccc2Cl)CC1 [Compound 281, (S)-1-((5-bromo-2′-chloro-[1,1′-biphenyl]-2-yl)sulfonyl)-N-(5-(dimethylamino)-5-oxopent-3-yn-2-yl)-4-fluoropiperidine-4-carboxamide]"
7,200 nM,"O=C(/C=C/CNC(=O)C1(F)CCN(S(=O)(=O)c2ccc(C(F)(F)F)cc2-c2ccccc2Cl)CC1)N1CC(F)(F)C1 [Compound 283, (E)-1-((2′-chloro-5-(trifluoromethyl)-[1,1′-biphenyl]-2-yl)sulfonyl)-N-(4-(3,3-difluoroazetidin-1-yl)-4-oxobut-2-en-1-yl)-4-fluoropiperidine-4-carboxamide]"
8,640 nM,"O=C(/C=C\CNC(=O)C1(F)CCN(S(=O)(=O)c2ccc(Br)cc2-c2ccccc2Cl)CC1)N1CCC1 [Compound 286, (Z)-N-(4-(azetidin-1-yl)-4-oxobut-2-en-1-yl)-1-((5-bromo-2′-chloro-[1,1′-biphenyl]-2-yl)sulfonyl)-4-fluoropiperidine-4-carboxamide]"
9,830 nM,"C[C@@H](/C=C\C(=O)N1CC(F)(F)C1)NC(=O)C1(F)CCN(S(=O)(=O)c2ccc(Br)cc2-c2ccccc2Cl)CC1 [Compound 287, (S,Z)-1-((5-bromo-2′-chloro-[1,1′-biphenyl]-2-yl)sulfonyl)-N-(5-(3,3-difluoroazetidin-1-yl)-5-oxopent-3-en-2-yl)-4-fluoropiperidine-4-carboxamide]"
10,490 nM,"COc1ccc(S(=O)(=O)N2CC[C@@](F)(C(=O)NC/C=C\C(=O)N3CC(F)(F)C3)C[C@H]2C)c(-c2ccccc2Cl)c1 [Compound 288, (2R,4S)-1-((2′-chloro-5-methoxy-[1,1′-biphenyl]-2-yl)sulfonyl)-N-((Z)-4-(3,3-difluoroazetidin-1-yl)-4-oxobut-2-en-1-yl)-4-fluoro-2-methylpiperidine-4-carboxamide]"
